Data set [1] concerns H4IIE tumor cells, NRK cells, rat primary hepatocytes. As to the kind of experiment: Anti-tumor screen in three rat cell types. The format is cell-based.
Excerpt: In the Anti-tumor screen of the present invention, at least three different cell types are utilized: (1) tumor derived cells, (2) proliferating cells from normal tissue, and (3) non-proliferating cells from normal tissue. The evaluation of anti-tumor agents in multiple cell types provides information on mechanism-based toxicity versus efficacy.
The anti-tumor agent can be evaluated in a toxicity screen of key biochemical functions (as described in detail herein above), with emphasis placed on cell proliferation assays as well as biochemical function and cell viability. Comparisons can then be made to quantitative markers in the concentration response curves constructed with the toxicity data.
It is hypothesized to act through mitochondrial toxicity as well as apoptosis.
A further data set concerns H4IIE cells. As to the kind of experiment: MemTox membrane leakage (AK / α-GST). The format is cell-based, rat. The following applies: rat, 24 h. A digest of the protocol: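 H4IIE rat hepatoma cells were exposed to compound diluted in complete culture medium. Leakage of adenylate kinase (luminescence) and/or α-GST (ELISA, 450/650 nm) was measured in the medium collected at the end of exposure. Percent live cells was computed relative to 1 mM digitonin-treated maximum release, as means of n=3-7.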

A short description of data set [2]: MemTox membrane leakage (AK / α-GST). The format is cell-based. The following applies: human, HUVEC, read-out: MemTox TC50. The protocol:
Membrane Leakage (α-Glutathione S-transferase and/or Adenylate Kinase): The presence of Adenylate Kinase (AK) or α-Glutathione S-transferase (α-GST), both enzyme leakage markers, was measured in the culture medium using an activity assay for Adenylate Kinase and/or an ELISA assay for α-GST. At the end of the exposure period, the medium covering the cells in each well was removed and placed into new 96-well plates with appropriate labeling. […] Luminescence (AK) values were measured with a Packard Fusion or equivalent plate reader, and absorbance (α-GST) values were measured with a Packard SpectraCount™ or equivalent reader at 450 nm and reference absorbance at 650 nm.
Membrane Leakage (α-Glutathione S-transferase and/or Adenylate Kinase): Leakage of Adenylate Kinase or α-GST from the cell into the culture medium was determined by collecting the culture medium at the end of the exposure period. Thus, the values measured represent total enzyme leakage lost over the exposure period. The control for 100% dead or maximum enzyme release was based on cells treated with 1 mM digitonin at the time of dosing. Percent dead cells relative to digitonin treated cells was determined and then subtracted from 100% to yield the percent live cells.
Dosing solutions were prepared in complete culture medium.

The next data set relates to human hepatocytes. As to the kind of experiment: Caspase 3 activity (apoptosis). The following applies: 24 HR. The format is cell-based. The protocol: Caspase 3 Procedure: Caspase 3 activity was determined using a caspase substrate (DEVD, Asp-Glu-Val-Asp) labeled with a fluorescent molecule, 7-Amino4-methylcoumarin (AMC). Caspase 3 cleaves the tetrapeptide between D and AMC, thus releasing the fluorogenic […] AMC. Following the test article exposure to cells in 96-well plates, medium was aspirated from plates and PBS added to each well. Plates were stored at −80° C. to lyse cells and store samples until further analysis. On the day of analysis, plates were removed from freezer and thawed. Caspase buffer with fluorescent substrate was added to each well and incubated at room temperature for 1 hr. AMC release was measured in a spectrofluorometer at an excitation wavelength of 360 nm and an emission wavelength of 460 nm. Values are expressed as relative fluorescent units (RFU).
Caspase Activity: After sample plates were completely thawed, the caspase substrate buffer mix was added to each plate. Plates were incubated at room temperature for 1hr, shielded from light. Plates were read using a in a spectrofluorometer at an excitation wavelength of 360 nm and an emission wavelength of 460 nm. Values were expressed as relative fluorescent units (RFU).
The apoptosis data is expressed in Table 2 as a ratio of the magnitude of response versus the exposure concentration that produced the response. […]

Data set [3] in a line: Intracellular total glutathione (GSH). The following applies: human. How it is done: Intracellular Glutathione (GSH) Levels: Intracellular glutathione levels were determined essentially as described by Griffith (1980) with modifications. At the end of the exposure period, the medium was removed from the cells and metaphosphoric acid (MPA) was added to each well. Plates were then shaken for 5 min at room temperature and stored at −20° C. until needed.
The sample plates were thawed just prior to analysis and centrifuged at >2000×g for at least 2 min. Sample aliquots were removed and transferred to a clean 96-well plate along with appropriate standard curve controls. Sample pH was neutralized just prior to analysis and each well received an aliquot of sodium phosphate reaction buffer containing EDTA, DTNB, NADPH, and glutathione reductase. The plates were mixed for 15-30 min at room temperature and glutathione content was determined calorimetrically with a Packard Fusion or equivalent reader at 415 nm.
Intracellular Glutathione (GSH) Levels: The assay is based on the concept that all GSH is oxidized to GSSG by DTNB reagent. Two molecules of GSH are required to make one molecule of GSSG. Total GSH was determined by reducing GSSG to 2GSH with glutathione reductase. A standard curve was prepared with oxidized glutathione (GSSG) over a range of concentrations. These concentrations are then converted to glutathione equivalents (GSX) essentially by multiplying the GSSG standard concentrations by 2. The amount of GSX expressed as pmoles/well was determined using the standard curve and regression analysis.
The test compound consisted of two parts mixed in a constant ratio of 5:1. The final test mixture consisted of Test mix 1 and Test mix 2, which were received as frozen solutions. The test mixture was tested in a ratio of 5:1 COMP A in five different cell types which included the following: SK-MEL28, human hepatocytes, HUVEC, C32, and NHEM cells. Cells were seeded into 96-well plates and cultured in medium containing 10% bovine serum. Following an equilibration period of 48 hr, the cells were treated with the test compound mix at concentrations of COMP A (μg/mL)=(250:50), (125:25), (25:12.5), (12.5:2.5), (2.5:1.25), (1.25:0.25), and (0.25:0.05) for 24 hr (overnight) at 37° C. in 5% CO2. […] Following an equilibration period of 4 hr, the cells were treated with the test compound mix at concentrations of COMP A (μg/mL)=(250:50), (125:25), (25:12.5), (12.5:2.5), (2.5:1.25), (1.25:0.25), and (0.25:0.05) for 24 hr (overnight) at 37° C. in 5% CO2.
Experimental Protocol: The test compounds were shipped on dry ice for testing. The compounds were stored frozen at −80° C. until needed. Dosing solutions were prepared in complete culture medium. SK-MEL28, human hepatocytes, HUVEC, C32, and NHEM cells were used as the test systems. Cells were seeded into 96-well plates and allowed to equilibrate for approximately 48 hr. Following the equilibration period the cells were exposed to the test compound mix at concentrations of COMP A (μg/mL)=(250:50), (125:25), (25:12.5), (12.5:2.5), (2.5:1.25), (1.25:0.25), and (0.25:0.05). Solubility was determined by Nephalometry techniques immediately after dosing and prior to harvesting the cells at 24 hr. Following the exposure period, the cells or their supernatant (culture medium) were analyzed for changes in cell proliferation, membrane leakage, mitochondrial function, oxidative stress, and apoptosis. The resultant exposure concentration response curves were graphed and analyzed for determining the concentration that produced a half maximal response or TC50.

Here are results for two molecules from patent publication US7615361B2, “Toxicity screening methods” (Ceetox, Inc., priority 2006, dated 2009).

In the case of `COc1cccc2c1C(=O)c1c(O)c3c(c(O)c1C2=O)C[C@@](O)(C(=O)CO)C[C@@H]3O[C@H]1C[C@H](N)[C@H](O)[C@H](C)O1` [ADRIAMYCIN, Adriamycin], in data set [1], the “sensitivity of cell types in the anti-tumor screen” value is “toxic to all of the cells tested”. Besides, the “less toxic in liver cells than in the cardiomyocytes (TC50 for membrane integrity)” value in the data set on H4IIE cells was “approximately 5 fold”.
Consider `CC[C@@]1(O)C(=O)OCc2c1cc1n(c2=O)Cc2cc3ccccc3nc2-1` [CAMPTOTHECIN, Camptothecin], for which the CC50 at 24 h is 13 µM in data set [2], 1000 nM in data set [3] (C32 cells), 1000 nM in data set [3] (HUVEC cells) and 44000 nM in data set [3] (human hepatocytes). In addition, the “Caspase 3 Activity (Index/Dose): Index” value in the data set with human hepatocytes is given as 3 (400-600 = 3). Further, in the data set with human hepatocytes (controls (μM section)), the “Caspase 3 Activity (Index/Dose): Dose” value is given as 100.
